This is an account of results in ChEMBL document CHEMBL1201862, “PubChem BioAssay data set” (2004).

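Growth conditions: 96-well plates. Treatment: test compound, 48 hours, 5 concentrations. Analysis: linear interpolation between bracketing concentrations; unreached endpoints set to highest concentration. GI50 is the concentration that inhibits growth by half.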 Calls of active or inactive are those of the source. Rule as the data show it: active = GI50 up to about 1.1 µM and inactive = higher. Where only a bound is given, the exact number is not on record here.

Test systems include A498; A549; CCRF-CEM; COLO 205; HCT-116; HOP-62; HT-29; K562; KM12; LOX IMVI; Malme-3M; NCI-H23; NCI-H460; RPMI-8226; SF-268; SF-539; SK-OV-3; SNB-75; SW-620; UACC-257.
Holding throughout (test): DTP human tumour cell line panel, 48 h

A word on the GI50: it is the concentration giving 50% growth inhibition. On to `COc1c2c(c(O)c3c4c(c(C)cc13)C1OC3(C(OC)OC5CC(C)(O)C(OC6CC(C)(O)C(O)C(C)O6)C(C)O5)OC1C(OC)(O4)C31CO1)C(=O)C(O)CC2OC1CC(C)(O)C(OC(C)=O)C(C)O1` (stereo not given), for which the GI50 in the assay on A498, in the assay on A549, with CCRF-CEM, in the assay on COLO 205, in the assay on HCT-116 and in the assay with HOP-62 was < 0.01 µM (active) in each case. Moreover, the GI50 with HT-29, in the assay on K562, in the assay on KM12, with LOX IMVI, with Malme-3M and in the assay on NCI-H23 was < 0.01 µM (active) each time. The GI50 in the assay with NCI-H460, in the assay on RPMI-8226, in the assay on SF-268, with SF-539, in the assay with SK-OV-3 and in the assay with SNB-75 was < 0.01 µM (active) in each case. Further, the GI50 in the assay on SW-620 and in the assay with UACC-257 was < 0.01 µM (active) in each case.

As for `CSC(=N)NNC(=O)CCC(=O)Nc1ccccc1C(F)(F)F`, the GI50 in the assay with A498, in the assay with A549, with CCRF-CEM, with COLO 205, in the assay on HCT-116 and in the assay with HOP-62 was > 100 µM (inactive) each time. In addition, the GI50 in the assay with HT-29, with K562, with KM12, in the assay with LOX IMVI, with Malme-3M and with NCI-H23 was > 100 µM (inactive) each time. The GI50 was > 100 µM (inactive) with NCI-H460; > 100 µM (inactive) with RPMI-8226; > 100 µM (inactive) in the assay with SF-268; > 79.8 µM (inactive) with SF-539; > 100 µM (inactive) with SK-OV-3; > 52.2 µM (inactive) in the assay with SNB-75. In addition, the values for the GI50 in the assay on SW-620 and in the assay with UACC-257 were > 82.2 µM (inactive) and > 100 µM (inactive), respectively.

Turning to `COc1cc(C2c3cc4c(cc3OC(N3CCCCC3)C2C)OCO4)cc(OC)c1OC` (stereo not given), the GI50 was 3.38 µM (inactive) in the assay on A498; 4.04 µM (inactive) in the assay with A549; 2.84 µM (inactive) with CCRF-CEM; 3.02 µM (inactive) with COLO 205; 3.37 µM (inactive) in the assay on HCT-116; 2.85 µM (inactive) in the assay with HOP-62. For the same molecule, the GI50 in the assay with HT-29 was 3.04 µM (inactive); in the assay with K562, 2.44 µM (inactive); with KM12, 2.88 µM (inactive); with LOX IMVI, 4.85 µM (inactive); in the assay on Malme-3M, 5.83 µM (inactive); in the assay on NCI-H23 it was 3.41 µM (inactive). Also, the GI50 in the assay on NCI-H460 is 3.52 µM (inactive); in the assay with RPMI-8226 it was 4.18 µM (inactive); in the assay with SF-268, 9.02 µM (inactive); with SF-539, 2.2 µM (inactive); in the assay with SK-OV-3, 2.77 µM (inactive); in the assay with SNB-75 it was 4.47 µM (inactive). For the same molecule, the figures for the GI50 in the assay with SW-620 and in the assay on UACC-257 were 3.2 µM (inactive) and 12.3 µM (inactive), respectively.

For `c1ccc2c(c1)SC1Sc3ccccc3[S+]21` (stereo not given), the GI50 is 33.3 µM (inactive) with A498; 27.4 µM (inactive) with A549; 16.5 µM (inactive) in the assay on CCRF-CEM; 11.1 µM (inactive) in the assay on COLO 205; 22.7 µM (inactive) with HCT-116; 31.6 µM (inactive) with HOP-62. The GI50 with HT-29 is 27.2 µM (inactive); in the assay on K562, 6.07 µM (inactive); in the assay on KM12 it was 16.4 µM (inactive); in the assay on LOX IMVI it was 18.5 µM (inactive); with Malme-3M, 2.98 µM (inactive); with NCI-H23 it was 18.2 µM (inactive). The GI50 with NCI-H460 was 29.5 µM (inactive); with RPMI-8226 it was 12.9 µM (inactive); with SF-268, 18.5 µM (inactive); with SF-539, 23.2 µM (inactive); with SK-OV-3, > 100 µM (inactive); in the assay with SNB-75, 38.4 µM (inactive). Further, the GI50 is 25.2 µM (inactive) in the assay with SW-620 and 17.3 µM (inactive) with UACC-257.

As for `CC1CCC(O)/C=C/C(=O)OC(C)C(O)/C=C/C(=O)O1` (stereo not given), the GI50 with A498 was > 100 µM (inactive); with A549 it was > 100 µM (inactive); with CCRF-CEM, 25.4 µM (inactive); in the assay with COLO 205, 64 µM (inactive); in the assay on HCT-116, > 60.5 µM (inactive); in the assay on HOP-62, > 100 µM (inactive). The GI50 was > 100 µM (inactive) with HT-29; 41.9 µM (inactive) with K562; > 100 µM (inactive) in the assay on KM12; > 100 µM (inactive) with LOX IMVI; > 100 µM (inactive) in the assay with Malme-3M; > 73.5 µM (inactive) in the assay on NCI-H23. Moreover, the GI50 with NCI-H460 was > 100 µM (inactive); with RPMI-8226, 74.1 µM (inactive); with SF-268 it was > 100 µM (inactive); with SF-539, > 86.7 µM (inactive); with SK-OV-3 it was > 100 µM (inactive); with SNB-75 it was > 100 µM (inactive). Also, the GI50 in the assay on SW-620 is 60.4 µM (inactive); in the assay on UACC-257, > 100 µM (inactive).

Turning to `COC(=O)C1OC(Oc2cc(O)c3c(=O)cc(-c4ccc(O)cc4)oc3c2)C(O)C(O)C1O` (stereo not given), the GI50 with A498, in the assay on A549, with CCRF-CEM, in the assay with COLO 205, in the assay with HCT-116 and in the assay on HOP-62 was > 100 µM (inactive) in each case. Besides, the GI50 in the assay with HT-29, in the assay on K562, in the assay on KM12, in the assay on LOX IMVI, in the assay with Malme-3M and with NCI-H23 was > 100 µM (inactive) throughout. Further, the GI50 in the assay on NCI-H460, with RPMI-8226, in the assay on SF-268, with SF-539, with SK-OV-3 and in the assay on SNB-75 was > 100 µM (inactive) each time. The GI50 in the assay with SW-620 and in the assay on UACC-257 was > 100 µM (inactive) throughout.

On to `O=C(O)C(C(=O)O)P(=S)(S)c1ccccc1` (stereo not given), for which the GI50 in the assay with A498, in the assay on A549, in the assay on CCRF-CEM, in the assay on COLO 205, with HCT-116 and with HOP-62 was > 100 µM (inactive) each time. In addition, the GI50 in the assay with HT-29, in the assay on K562, in the assay on KM12, in the assay with LOX IMVI, with Malme-3M and in the assay with NCI-H23 was > 100 µM (inactive) each time. Moreover, the GI50 with NCI-H460, in the assay on RPMI-8226, with SF-268, in the assay on SF-539, in the assay on SK-OV-3 and in the assay on SNB-75 was > 100 µM (inactive) throughout. In addition, the GI50 with SW-620 and in the assay on UACC-257 was > 100 µM (inactive) throughout.

Regarding `CCCCC1=C(Br)C(=C(Br)Br)OC1=O`, the GI50 is 15.2 µM (inactive) with A498; 17.1 µM (inactive) in the assay with A549; 2.45 µM (inactive) in the assay on CCRF-CEM; 3.01 µM (inactive) in the assay with COLO 205; 3.02 µM (inactive) in the assay with HCT-116; 7.96 µM (inactive) in the assay with HOP-62. Besides, the GI50 in the assay on HT-29 was 3.08 µM (inactive); in the assay with K562, 3.32 µM (inactive); in the assay on KM12 it was 3.29 µM (inactive); in the assay on LOX IMVI it was 1.87 µM (inactive); in the assay with Malme-3M it was 2.25 µM (inactive); with NCI-H23, 4.37 µM (inactive). In addition, the GI50 was 4.56 µM (inactive) with NCI-H460; 0.379 µM (active) with RPMI-8226; 2.61 µM (inactive) in the assay on SF-268; 3.26 µM (inactive) in the assay on SF-539; 17.6 µM (inactive) in the assay with SK-OV-3; 5.64 µM (inactive) in the assay on SNB-75. Besides, the results for the GI50 in the assay with SW-620 and in the assay on UACC-257 were 3.34 µM (inactive) and 2.48 µM (inactive), respectively.
